Format in all cases: cell-based
The test system of data set [1] is Bacillus subtilis ATCC strain 6633. As to the kind of experiment: NCCLS broth microdilution test, minimum inhibitory concentration. The note with it: for minimum inhibitory concentration / MIC: B. subtilis; for antimicrobial activity / potency (in words): against the target organism B. subtilis; for MIC: Bacillus subtilis, ATCC6633. The protocol: Minimum inhibitory concentrations with Bacillus subtilis ATCC strain 6633 were determined using the National Committee for Clinical Laboratory Standards broth microdilution test (NCCLS, 2000. NCCLS Document M7-A5—Methods for Dilution Antimicrobial Susceptibility Tests for Bacteria that Grow Aerobically, Approved Standard—Fifth Edition). The test was standardised using penicillin G and gentamicin with Staphyloccous aureus ATCC strains 29213 and 25923 and Enterococcus faecalis ATCC strain 29212. Results of standardisation were assessed according to the NCCLS standards (NCCLS, 2000. NCCLS Document M100-S10(M7)—Performance Standards for Antimicrobial Susceptibility Testing; Tenth Informational Supplement (Aerobic Dilution). NCCLS, Wayne, Pa.).

Data set [2] shares this test system. In words: filter paper disk / disc diffusion assay on Bacillus subtilis plate. The protocol: The Bacillus subtilis ATCC strain 6633 was used at 9.2 mL of a log phase culture with […] per 200 mL of Luria-Bertani medium containing 1.5% (w/v) agar. The plate was incubated at 28° C. for 24 hours and the diameter of the clearing zone was measured. Dilutions of the extract and fractions from HPLC chromatography were tested in the same way. In some cases, fractions from the column were tested by evaporating them to dryness, redissolving in methanol and simply spotting 10 μL of the methanolic sample directly onto the bacteriological plate and proceeding as described.

Data set [3] deals with SP2/0—Ag8, a non-secreting mouse myeloma cell line. In words: mammalian cell growth, WST-1 proliferation assay. As to conditions: concentrations up to 30 μg/mL, 19 hours at 37° C. The protocol: (§1) Effects on mammalian cell growth were determined by exposing cultures of two mammalian neoplastic cell lines (SP2/0—Ag8, a non-secreting mouse myeloma cell line derived from Balb/C mice, and NCl-H460, a human-derived […] lung carcinoma line) to fixed dilutions of the methanolic extract of N. triodiae or to fixed concentrations of fraction 23, (6) for 19 hours at 37° C. Cells were grown in wells of sterile 96-well tissue culture cluster plates by standard methods. Cell growth was estimated using the Cell Proliferation Reagent WST-1 (Roche Diagnostics) according to the manufacturer's instructions and proliferation data were compared with those from untreated control wells.

The subject of data set [4] is NCl-H460, a human-derived small cell lung carcinoma line. In words: mammalian cell growth, WST-1 proliferation assay. As to conditions: concentrations up to 100 μg/mL, 19 hours at 37° C. The protocol:
as §1

[5] abbreviates: unknown concentration and mass of the compound, disc diffusion assay.

A value given as a limit tells only on which side of the number the result lay.

Regarding “1(15),8(19)-trinervitadiene-3α,5α,18-triol 3,5,18-triacetate [Compound 10]”, in data set [1] (broth microdilution, estimated), the minimum inhibitory concentration was greater than 50 µg/mL. Besides, the “antimicrobial activity / potency (in words)” value is on record as “reduced but detectable antimicrobial activity” in data set [1] and “active, albeit less potent than the diols or triol” in data set [1] (listed as triacetate). Besides, the clear zone diameter in data set [2] (5 μg of compound, disc diffusion assay) is listed as 11 mm.
As for `C=C1CCC[C@H](C)CCC2=C(C)[C@@H]3[C@H]1C[C@@H](O)[C@]3(CO)[C@@H](O)C2` [Compound 6, 1(15),8(19)-trinervitadiene-3α,5α,18-triol], the “inhibitory effect on proliferation of SP2/0 cells” value in data set [3] is “no detectable inhibitory effect”. In data set [4], the “inhibitory effect on proliferation of NCl-H460 cells” value was “no detectable inhibitory effect”. Also, the minimum inhibitory concentration in data set [1] (as restated in the discussion) is reported as no more than 50 parts per million. Besides, the MIC in data set [1] (broth microdilution, estimated) is no more than 50 µg/mL. The “antimicrobial activity / potency (in words)” value in data set [1] was “moderately good antimicrobial potency”. For the same compound, in data set [2] (B. subtilis plate test), the “antimicrobial activity of extracts and HPLC fractions (in words)” value was “antimicrobial activity was detected”.
As to `C=C1CCC[C@H](C)CCC2=C(C)[C@@H]3[C@H]1C[C@@H](O)[C@]3(C)[C@@H](O)C2` [Compound 7, 1(15),8(19)-trinervitadiene-3α,5α-diol], the MIC in data set [1] (broth microdilution, estimated) is no more than 50 µg/mL. Moreover, the “antimicrobial activity / potency (in words)” value in data set [1] is recorded as “reduced but detectable antimicrobial activity”. Moreover, the zone of inhibition at 5 µg/disc in data set [2] (Bacillus subtilis, ATCC6633, 5 μg of compound, disc diffusion assay, read-out: clear zone diameter) amounted to 7 mm.
Turning to `C=C1CCC[C@H](C)CCC2=C(C)[C@@H]3[C@H]1C[C@@H](OC(C)=O)[C@]3(CO)[C@@H](O)C2` [Compound 8, 1(15),8(19)-trinervitadiene-3α,5α,18-triol 5-acetate], the MIC in data set [1] (broth microdilution, estimated) was greater than 50 µg/mL. Moreover, the “antimicrobial activity / potency (in words)” value in data set [1] was “reduced but detectable antimicrobial activity”; in data set [1] (listed as monoacetate), “active, albeit less potent than the diols or triol”. The compound also yielded a clear zone diameter in data set [2] (setting [5]) of 15 mm.
In turn, `CC1=C2CC[C@@H](C)CC/C=C(/C)[C@@H]3CC[C@@](C)([C@H]13)[C@@H](O)[C@@H]2O` [Compound 9, 1(15),8(9)-trinervitadiene-2β,3α-diol] came in with a minimum inhibitory concentration in data set [1] (as restated in the discussion) of no more than 25 parts per million. Also, the MIC in data set [1] (broth microdilution, estimated) is no more than 25 µg/mL. For the same compound, the “antimicrobial potency relative to the triol (6) and diol (7)” value in data set [1] (fold more potent) was 2-4 times. Moreover, in data set [1] (lowest concentration with significant inhibitory activity), the “significant inhibitory activity as low as” value was determined as 12 parts per million. Also, the clear zone diameter in data set [2] (setting [5]) came to 15 mm.

These data come from patent US20060094780A1, “Novel antibiotic compounds” (priority 2000, published 2006).
